Reference: patent US10881678B2, “Cytotoxic agents for the treatment of cancer” (CytRx Corporation, priority 2013, dated 2021)
Entries after “also recorded” stand apart in the source; their conditions may differ.

Tests used:
U87-luc glioma cells [1] = assay: Intracranial U87-luc glioblastoma xenograft in mice, Example 1 (bioluminescent imaging, survival); format: in vivo; details: for difference in tumor growth between 8 days and 22 days within the group: aldoxorubicin p>0.05, doxorubicin p<0.05; for survival time compared with vehicle-treated mice (Kaplan-Meier): result in words, aldoxorubicin also vs doxorubicin-treated group
Protocol: Intracranial implantation of U87-luc glioma cells in mice: A U87MG subline, U87-luc with a luciferase reporter gene was used for establishing intracranial human glioblastoma tumors. Female BALB/c (nu/nu) mice, 6-8 weeks of age, were anesthetized with a ketamine/xylazine cocktail solution. Animals were secured in a Harvard Apparatus stereotaxic head frame, a 1 cm midline scalp incision was made, and 5×10^5 cells in 5 μL serum-free DMEM were injected into the left striatum (coordinates: 2.5 mm lateral and 0.5 mm posterior to the bregma) through a burr hole in the skull using a 10 μl Hamilton syringe to deliver tumor cells to a 3.5 mm intraparenchymal depth. The burr hole in the skull was sealed with bone wax and the incision closed using wound glue. Tumor growth was evaluated by bioluminescent imaging.
Aldoxorubicin treatment of mice: The study consisted of 8 vehicle-treated control mice (group C), 8 doxorubicin-treated mice (group D), and 8 aldoxorubicin-treated mice (group A). Treatment was initiated twelve days after intracranial implantation of glioblastoma multiforme (GBM) cells. Vehicle (10 mM sodium phosphate, 5% D-(+)-glucose, pH 6.4) or aldoxorubicin was administered intravenously for a total of six injections (i.e., 12, 19, 26, 42, 50, and 56, days after cell implantation). All the doses were ˜75% of the maximum tolerated dose (MTD) of 32 mg/kg/inj in mice except that the dose given after 50 days of cell implantation was 50% of the MTD. Doxorubicin was administered intravenously for a total of two injections (i.e., 12 and 19 days after cell implantation) with ˜75% of the MTD of 8 mg/kg/inj. Both the drugs and the vehicle were administered using an injection volume of 0.15 ml.
In vivo imaging of intracranial tumors: Intracranial tumor growth was quantified by bioluminescent imaging using an in vivo imaging system (Xenogen, Palo Alto, Calif.). All mice were given an IP injection of 100 μl of 30 mg/ml D-luciferin (PerkinElmer) suspended in DPBS 10 minutes before imaging to provide a substrate for the luciferase enzyme. Prior to imaging, mice were anesthetized with inhalation of isoflurane gas. Images were captured using the Xenogen Ivis 200 imaging system and quantified with Living Image 4.1 software from Xenogen for a region of interest that encompassed the head of the mouse. Image intensities were expressed as photons/sec/cm^2/sr.
Statistical Analysis: The log-rank test was used to create Kaplan-Meier survival curves to compare survival between control and drug-treated mice using the Statistical Analysis Software of SAS Institute, Inc., Cary, N.C. Differences between groups were assessed using the unpaired Student's t test. AR values are shown as the mean±standard deviation. A p value≤0.05 was considered statistically significant.

U87-luc glioma cells [2] = assay: Intracranial U87-luc glioblastoma xenograft in mice, Example 2 (bioluminescent imaging, survival); format: in vivo
Protocol: Female mice (6-8 weeks of age) were implanted intracranially with U87-luc subline with luciferase reporter gene to establish human glioblastoma tumors. Tumor growth was evaluated by bioluminescent imaging using D-luciferin substrate. 8 mice were treated with aldoxorubicin and 8 were treated with phosphate buffer saline (vehicle). Treatment started 9 days after implantation of the GBM cells. Aldoxorubicin or vehicle was administered i.v. once a week for three weeks (9, 16, and 23 days after cell implantation). The first two doses of aldoxorubicin were 75% and the third dose was 50% of the MTD of 32 mg/kg/injection in mice.

[3] = Plasma and tissue distribution by HPLC in intracranial tumor-bearing mice; format: in vivo
Protocol: (§1) HPLC System and Conditions: An Agilent 1100 Series HPLC System (Wilmington, Del., USA) having a scanning fluorescent detector with excitation and emission wavelengths set at 480 and 560 nm, respectively, was used. Agilent Chemstation software was used for data acquisition. Separation was achieved on a Waters Spherisorb ODS2 column (4 mm×250 mm, 5 μm) fitted with a guard cartridge (BDS-Hypersil-C18, 5 μM). Elution was performed with mobile phase containing 65% monosodium phosphate, pH 2.2, and 35% acetonitrile. A constant flow rate of 1.25 ml/min was used for the separation. The column was set to 28° C. and the injection volume was 25 μl.
Sample preparation: Aldoxorubicin, 24 mg/kg/inj (75% of the MTD), was administered in intracranial GBM tumor-bearing mice through tail vein injection, and after 4, 8, 16, and 24 h after injection, mice (3 animals at each time point) were euthanized by CO2 gas. Blood samples were collected by heart puncture in heparinized tubes, and centrifuged for plasma separation. Immediately after blood sampling, organs (brain, heart, kidney liver and lung) were surgically removed. The plasma and tissues were stored at −80° C. until analysis.
Frozen samples were thawed at room temperature and homogenized in sterile saline using a PowerGen Model 125 homogenizer (Fisher Scientific) to obtain final tissue concentrations (w/v) of 150 mg/ml for the liver and brain; 125 mg/ml for the lung, heart and muscle; and 100 mg/ml for kidney. Perchloric acid (35%, v/v) was added to a 20 μl aliquot of plasma or tissue samples followed by 25 μl of mobile phase. The samples were vortexed followed by centrifugation at 10,000×g for 10 min. and 25 μl of the supernatant was applied to the HPLC column.

[4] = Aldoxorubicin retention in brain tumors and surrounding brain tissue by HPLC; format: in vivo, mice; details: i.v. 24 mg/kg, 6 and 24 h after injection
Protocol: as §1, with “The HPLC system used was an” for “An”, “Series” for “Series HPLC System”, “equipped with” for “having”, “respectively.” for “respectively, was used.”, “comprised of” for “containing”, “65% 50 mM” for “65%”
Sample preparation: For quantification of aldoxorubicin in brain tissue and brain tumors, mice were euthanized by CO2 inhalation 6 and 24 h after aldoxorubicin injection (24 mg/kg/inj), brains were harvested and tumors were resected. The harvested tissues were stored at −80° C. until analysis.
Frozen samples were thawed at room temperature and homogenized in sterile saline using a PowerGen Model 125 homogenizer (Fisher Scientific) to obtain final tissue concentrations (w/v) of 150 mg/ml. Perchloric acid (35%, v/v) was then added to a […] aliquot followed by 25 μl of mobile phase. […] In the tissue samples analyzed, aldoxorubicin eluted with the retention time of doxorubicin.

[5] = Aldoxorubicin/doxorubicin detection in brain tumors by stereomicroscope epifluorescence; format: in vivo, mice; details: 24 h following the last injection; epifluorescence of whole brains
Protocol: Aldoxorubicin/doxorubicin detection in brain tumors: Tumor-bearing mice were given intravenous injections of aldoxorubicin or doxorubicin as described above in Example 1. Mice were euthanized 24 h following the last injection. Brains were harvested and imaged using an MVX10 stereomicroscope (Olympus of America) equipped for brightfield and epifluorescence with filters encompassing doxorubicin-specific wavelengths to visualize drug accumulation.

[6] = Maximum tolerated dose in mice; format: in vivo; details: intravenous
[7] = Drug detection in cryosections of brain tissues of tumor-bearing mice (immunohistochemistry, confocal); details: drug fluorescence
Protocol: Immunohistochemistry: For histologic analysis, brain tissues from control and drug-treated tumor-bearing mice were harvested, snap frozen in optimal cutting temperature (OCT) compound and stored at −80° C. Cryostat sections were placed on slides and fixed in zinc-buffered formalin. Slides were blocked with 5% goat serum in 1% BSA followed by overnight incubation with primary antibodies against CD31 (102402, Biolegend, San Diego, Calif.), Ki-67 (ab156956, Abcam, Cambridge, Mass.), Vimentin (ab92547, Abcam), cleaved-Caspase-3 (CP229B, Biocare Medical), and GFAP (NB300-141, Novus Biologicals, Littleton, Colo.). Slides were then incubated with primary antibody source-specific secondary antibodies conjugated to Alexa Fluor 488 or 635 and DAN as a nuclear counterstain. The detection fluorophores used were limited to those around the inherent fluorescence spectra of doxorubicin (λex=480 nm, λem=550-590 nm) (22876313) to avoid bleed-through and enable co-detection of the drug with respect to certain antigens. Epifluorescence photomicrographs were captured at 100× and 400× magnification using an FV1000 confocal microscope (Olympus of America, Center Valley, Pa.) equipped with multi-Argon, 405, 559, and 635 diodes. Quantitative analysis was performed with Slidebook software (Intelligent Imaging Innovations, Denver, Colo.).

[8] = literature; cited from earlier work
[9] = target: P-glycoprotein efflux pumps (Homo sapiens, UniProt P08183); details: literature; cited from earlier work
[10] = test system: glioblastoma growing in the brain; details: literature; cited from earlier work
Glioblastoma cell lines = details: literature; cited from earlier work
[11] = 22 days after implantation, aldoxorubicin treatment for 2 weeks, radiance
[12] = administered intravenously, intracranial human GBM tumors
[13] = i.v. 24 mg/kg (~75% of the MTD)

Sequence of P-glycoprotein efflux pumps (P08183 whole entry): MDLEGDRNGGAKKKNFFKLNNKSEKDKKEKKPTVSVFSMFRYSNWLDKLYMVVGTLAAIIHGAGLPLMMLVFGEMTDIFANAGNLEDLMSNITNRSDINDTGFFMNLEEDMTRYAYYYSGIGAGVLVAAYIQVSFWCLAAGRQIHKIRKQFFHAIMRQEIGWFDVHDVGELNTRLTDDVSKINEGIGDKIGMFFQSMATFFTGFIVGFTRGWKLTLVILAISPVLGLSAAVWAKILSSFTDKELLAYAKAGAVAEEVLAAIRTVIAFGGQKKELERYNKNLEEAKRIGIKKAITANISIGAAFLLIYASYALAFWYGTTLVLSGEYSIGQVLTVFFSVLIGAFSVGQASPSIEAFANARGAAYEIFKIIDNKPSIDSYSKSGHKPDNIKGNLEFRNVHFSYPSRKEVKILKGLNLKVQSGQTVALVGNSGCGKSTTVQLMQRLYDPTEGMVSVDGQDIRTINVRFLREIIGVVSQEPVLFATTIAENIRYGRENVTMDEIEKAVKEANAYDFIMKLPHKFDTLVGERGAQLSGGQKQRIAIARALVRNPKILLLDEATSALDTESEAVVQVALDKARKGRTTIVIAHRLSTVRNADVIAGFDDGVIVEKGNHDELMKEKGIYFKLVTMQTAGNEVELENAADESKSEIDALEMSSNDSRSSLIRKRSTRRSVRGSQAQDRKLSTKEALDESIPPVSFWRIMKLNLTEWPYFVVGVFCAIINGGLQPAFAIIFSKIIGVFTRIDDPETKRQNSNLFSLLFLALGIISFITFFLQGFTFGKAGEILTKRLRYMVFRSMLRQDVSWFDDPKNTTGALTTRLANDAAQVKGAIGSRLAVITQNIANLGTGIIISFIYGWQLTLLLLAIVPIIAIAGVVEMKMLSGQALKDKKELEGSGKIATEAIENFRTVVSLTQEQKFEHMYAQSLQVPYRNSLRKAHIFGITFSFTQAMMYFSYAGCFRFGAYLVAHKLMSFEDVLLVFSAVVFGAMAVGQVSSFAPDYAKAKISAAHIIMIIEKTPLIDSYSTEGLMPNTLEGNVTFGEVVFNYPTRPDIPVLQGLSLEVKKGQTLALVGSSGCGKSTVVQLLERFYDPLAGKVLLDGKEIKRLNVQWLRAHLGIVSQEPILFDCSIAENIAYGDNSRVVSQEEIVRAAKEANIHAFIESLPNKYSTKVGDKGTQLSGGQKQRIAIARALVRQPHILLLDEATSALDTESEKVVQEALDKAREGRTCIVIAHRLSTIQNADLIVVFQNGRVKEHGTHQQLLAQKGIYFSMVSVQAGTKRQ

Structure (SMILES): COc1cccc2c1C(=O)c1c(O)c3c(c(O)c1C2=O)C[C@@](O)(/C(CO)=N/NC(=O)CCCCCN1C(=O)C=CC1=O)C[C@@H]3OC1CC(N)C(O)C(C)O1.Cl (some centres unmarked) [aldoxorubicin]
- average tumor size relative to the control group (U87-luc glioma cells [1]; [11]): 28%
- average tumor size relative to the doxorubicin treatment group (U87-luc glioma cells [1]; [11]): 40%
- survival of animals 34 days after tumor implantation (U87-luc glioma cells [1]; 34 days, group of 8 mice): remained alive
- overall antitumor result (U87-luc glioma cells [1]; [12]): induces tumor regression and significantly increases survival
- animals still alive (U87-luc glioma cells [1]; after 41 days): seven of the eight
- difference in tumor growth between 8 days and 22 days within the group (U87-luc glioma cells [1]; radiance): no relative difference in tumor growth
- survival time compared with vehicle-treated mice (Kaplan-Meier) (U87-luc glioma cells [1]): increased survival times; also recorded: survived a longer time
- mice with tumor regrowth (U87-luc glioma cells [2]; Day 29): 2
- mice dead (U87-luc glioma cells [2]; Day 29, group of 8 mice): 1
- other mice with tumor regrown (U87-luc glioma cells [2]; Day 33): 4
- mice dead (U87-luc glioma cells [2]; Day 33, group of 8 mice): 3
- overall antitumor result (U87-luc glioma cells [2]; [12]): induces tumor regression and increases survival
- mice with detectable tumor (U87-luc glioma cells [2]; at 21 days, group of 8 mice): 1
- survival compared with vehicle (Kaplan-Meier) (U87-luc glioma cells [2]; result in words): survived longer
- levels in the brain over time ([3]; from 4 h to 24 h, total brain tissue of tumor-bearing mice): remained almost same
- plasma concentration relative to that in the brain [3, 13]: more than 200 fold
- plasma concentration relative to the mean concentration in liver, heart, lung and kidney [3, 13]: more than 20 fold
- time of highest drug concentration ([3]; plasma and other organs except brain, i.v. 24 mg/kg (~75% of the MTD)): 4 h
- time to reach nearly 50% of its concentration ([3]; plasma and other tissues except the brain): 20 h
- retention in tumor tissues relative to surrounding brain tissues [4]: 3- to 4 fold
- accumulation in glioblastoma tumors [5]: accumulates in glioblastoma tumors
- maximum tolerated dose (MTD) [6]: 32 mg/kg/inj
- accumulation in brain tumor and normal brain tissue [7]: accumulates in the brain tumor but not in normal brain tissue

Structure (SMILES): COc1cccc2c1C(=O)c1c(O)c3c(c(O)c1C2=O)C[C@@](O)(C(=O)CO)C[C@@H]3O[C@H]1C[C@H](N)[C@H](O)[C@H](C)O1 [doxorubicin, reference compound]
- time after tumor implantation within which all animals died (U87-luc glioma cells [1]; group of 8 mice): ≤ 34 days
- animals died (U87-luc glioma cells [1]; in 22 days, group of 8 mice): 2
- difference in tumor growth between 8 days and 22 days within the group (U87-luc glioma cells [1]; radiance): a relative difference in tumor growth
- survival time compared with vehicle-treated mice (Kaplan-Meier) (U87-luc glioma cells [1]): no difference in the survival time; also recorded: no difference in the survival curves
- accumulation in glioblastoma tumors [5]: not doxorubicin accumulates
- maximum tolerated dose (MTD) [6]: 8 mg/kg/inj
- ability to cross the BBB [8]: lacks the ability to cross the BBB
- free concentration in glioma tissues [8]: below effective levels
- P-glycoprotein efflux pump substrate [9]: substrate of the P-glycoprotein efflux pumps
- effect on glioblastoma growing in the brain [10]: no effect
- effect on glioblastoma cell lines (Glioblastoma cell lines): driven to apoptosis following growth arrest
- accumulation in brain tumor and normal brain tissue [7]: not found in any appreciable amount in either the tumor or normal brain
